Experimental data as given in patent US11091501B2, “Heterocyclic compounds as RSV inhibitors” (Enanta Pharmaceuticals, Inc., priority 2017, dated 2021).

System: Human RSV-A (“Long” strain)
Assay: RSV in vitro cytoprotection assay (CPE, ATPlite) in HEp-2 cells
Type: cell-based
Conditions: human respiratory syncytial virus, 96 h; HEp-2 cells, 4-day incubation, ATPlite readout; read-out: Human RSV-A (“Long” strain) EC50
In short: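 HEp-2 cells (8,000/well) given 2-fold serial compound dilutions in duplicate, then infected with sucrose-stabilised RSV-A Long stock. After 4 days, cell viability read by ATPlite luminescence, with a parallel uninfected plate for cytotoxicity. EC50 binned A<0.01 μM, B 0.01-0.05 μM, C>0.05 μM.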

| SMILES | EC50 |
| --- | --- |
| Cc1cnc(N2CC3(CCOCC3)C2)c(C(=O)Nc2ccc(C(=O)N3CCc4c(sc(C(=O)Nc5ccc(F)cc5)c4F)-c4ccccc43)cc2)c1 [Example 217] | < 10 nM |
| Cc1cnc(N2CC3(CCOCC3)C2)c(C(=O)Nc2ccc(C(=O)N3CCc4cc(C(=O)Nc5c(Cl)cccc5Cl)oc4-c4ccc(F)cc43)cc2)c1 [Example 236] | < 10 nM |
| O=C(Nc1c(F)cccc1F)c1cc2c(s1)-c1ccc(F)cc1N(C(=O)c1ccc(NC(=O)c3cccnc3N3CCCC(F)(F)CC3)cc1)CC2 [Example 52] | > 50 nM |
| O=C(Nc1ccc(C(=O)N2CCc3cc(-c4nc5ccccc5[nH]4)sc3-c3ccc(F)cc32)cc1)c1cc2c(nc1N1CC3(CCOCC3)C1)CCC2 [Example 68] | 10 to 50 nM |
| Cc1cnc(N2CC3(CCOCC3)C2)c(C(=O)Nc2ccc(C(=O)N3CCc4c(sc(C(=O)Nc5c(F)cccc5Cl)c4F)-c4ccccc43)cc2)c1 [Example 197] | < 10 nM |
| Cc1cnc(N2CC3(CCOCC3)C2)c(C(=O)Nc2ccc(C(=O)N3CCc4c(sc(C(=O)Nc5cccc(C)n5)c4F)-c4ccccc43)cc2)c1 [Example 229] | 10 to 50 nM |
| Cc1cccc(F)c1NC(=O)c1cc2c(s1)-c1ccc(F)cc1N(C(=O)c1ccc(NC(=O)c3cc(F)cnc3N3CC4(CCOCC4)C3)cc1)CC2 [Example 36] | < 10 nM |
| Cc1cnc(N2CC3(CCOCC3)C2)c(C(=O)Nc2ccc(C(=O)N3CCc4cc(C(=O)Nc5ncco5)sc4-c4ccc(F)cc43)cc2)c1 [Example 125] | 10 to 50 nM |
| Cc1cnc(N2CC3(CCOCC3)C2)c(C(=O)Nc2ccc(C(=O)N3CCc4cc(C(=O)Nc5ccnnc5)sc4-c4ccc(F)cc43)cc2)c1 [Example 127] | 10 to 50 nM |
| Cc1cccc(F)c1NC(=O)c1cc2c(s1)-c1ccc(F)cc1N(C(=O)c1ccc(NC(=O)c3cc4ccccc4nc3N3CC4(CCOCC4)C3)cc1)CC2 [Example 14] | < 10 nM |
| O=C(Nc1c(F)cccc1F)c1cc2c(s1)-c1ccc(F)cc1N(C(=O)c1ccc(NC(=O)c3cccnc3C3=CCOCC3)cc1)CC2 [Example 60] | > 50 nM |
| CC1(CNc2ncccc2C(=O)Nc2ccc(C(=O)N3CCc4cc(C(=O)Nc5c(F)cccc5F)sc4-c4ccc(F)cc43)cc2)CCCO1 (stereo not shown) [Example 58] | > 50 nM |
| Cc1cnc(N2CC3(CCOCC3)C2)c(C(=O)Nc2ccc(C(=O)N3CCc4cc(-c5cnc6[nH]ncc6c5)sc4-c4ccc(F)cc43)cc2)c1 [Example 179] | < 10 nM |
| Cc1cnc(N2CC3(CCOCC3)C2)c(C(=O)Nc2ccc(C(=O)N3CCc4c(sc(C(=O)Nc5cccc(F)c5)c4F)-c4ccccc43)cc2)c1 [Example 210] | < 10 nM |
| O=C(Nc1ccc(C(=O)N2CCc3c(sc(C(=O)Nc4c(F)cc(F)cc4F)c3F)-c3ccccc32)cc1)c1cccnc1N1CC2(CCOCC2)C1 [Example 89] | < 10 nM |

Other lines, results leading:

| EC50 | SMILES |
| --- | --- |
| < 10 nM | O=C(Nc1c(F)cccc1C(F)(F)F)c1cc2c(o1)-c1ccccc1N(C(=O)c1ccc(NC(=O)c3cc4c(nc3N3CC5(CCOCC5)C3)CCC4)cc1)CC2 [Example 248] |
| 10 to 50 nM | Cc1cnc(N2CC3(CCOCC3)C2)c(C(=O)Nc2ccc(C(=O)N3CCc4cc(NC(=O)OC5CCCC5)sc4-c4ccccc43)cc2)c1 [Example 293] |
| < 10 nM | Cc1ccc(C(=O)Nc2ccc(C(=O)N3CCc4cc(C(=O)Nc5ccccc5F)oc4-c4ccccc43)cc2)c(N2CC3(CCOCC3)C2)n1 [Example 258] |
| < 10 nM | Cc1cnc(N2CC3(CCOCC3)C2)c(C(=O)Nc2ccc(C(=O)N3CCc4c(sc(NC(=O)c5c(F)cncc5F)c4F)-c4ccccc43)cc2)c1 [Example 306] |
| 10 to 50 nM | O=C(Nc1ccc(C(=O)N2CCc3cc(-c4nc5ccccc5[nH]4)oc3-c3ccc(F)cc32)cc1)c1cc2c(nc1N1CC3(CCOCC3)C1)CCCC2 [Example 245] |
| > 50 nM | Cc1cnc(N2CC3(CCOCC3)C2)c(C(=O)Nc2ccc(C(=O)N3CCc4cc(NS(=O)(=O)c5ccccc5F)sc4-c4ccccc43)cc2)c1 [Example 290] |
| < 10 nM | Cc1cnc(N2CC3(CCOCC3)C2)c(C(=O)Nc2ccc(C(=O)N3CCc4cc(NC(=O)OC5CCC5)sc4-c4ccccc43)cc2)c1 [Example 292] |
